Test results: ChEMBL document CHEMBL1201862, “PubChem BioAssay data set” (2004)
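Grown in 96-well plates, cells were treated for 48 hours with each compound at five concentrations. Insufficient inhibition: endpoint recorded as highest concentration tested. GI50 = concentration required for 50% inhibition of growth.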 Activity calls are given as the source filed them. Cut-off read from the data, not from the text of the source: active = GI50 up to about 1.1 µM and inactive = higher.

Columns and labels:
Test in all cases: NCI-60 cell line screen, 48 h
SK-MEL-5 = tested on: SK-MEL-5
UO-31 = tested on: UO-31
HCC 2998 = tested on: HCC 2998
UACC-62 = tested on: UACC-62
RPMI-8226 = tested on: RPMI-8226
MOLT-4 = tested on: MOLT-4
KM-20L2 = tested on: KM-20L2
A549 = tested on: A549
M14 = tested on: M14
SK-MEL-28 = tested on: SK-MEL-28
TK-10 = tested on: TK-10
IGROV-1 = tested on: IGROV-1
KM12 = tested on: KM12
U-251 = tested on: U-251
DLD-1 = tested on: DLD-1
A498 = tested on: A498
NCI-H226 = tested on: NCI-H226
Hs-578T = tested on: Hs-578T
T47D = tested on: T47D
NCI/ADR-RES = tested on: NCI/ADR-RES

SMILES	GI50 (SK-MEL-5)	GI50 (UO-31)	GI50 (HCC 2998)	GI50 (UACC-62)	GI50 (RPMI-8226)	GI50 (MOLT-4)	GI50 (KM-20L2)	GI50 (A549)	GI50 (M14)	GI50 (SK-MEL-28)	GI50 (TK-10)	GI50 (IGROV-1)	GI50 (KM12)	GI50 (U-251)	GI50 (DLD-1)	GI50 (A498)	GI50 (NCI-H226)	GI50 (Hs-578T)	GI50 (T47D)	GI50 (NCI/ADR-RES)
O=C1CCC(=O)N1CNc1cccc(NCN2C(=O)CCC2=O)c1	> 100 µM (inactive)	> 100 µM (inactive)	> 100 µM (inactive)	48.5 µM (inactive)	17.3 µM (inactive)	52.6 µM (inactive)	11 µM (inactive)	> 100 µM (inactive)	> 100 µM (inactive)	> 100 µM (inactive)	> 100 µM (inactive)	87.9 µM (inactive)	> 100 µM (inactive)	> 100 µM (inactive)	> 100 µM (inactive)	–	–	–	–	–
CC1CC2C(=O)N(c3ccccc3)C(=O)C2c2[nH]c3ccccc3c21 (configuration not stated)	> 100 µM (inactive)	–	> 100 µM (inactive)	> 100 µM (inactive)	37.6 µM (inactive)	28.4 µM (inactive)	–	94 µM (inactive)	78.9 µM (inactive)	58.9 µM (inactive)	85.7 µM (inactive)	> 100 µM (inactive)	58.5 µM (inactive)	38.8 µM (inactive)	89.3 µM (inactive)	> 100 µM (inactive)	–	–	–	–
C=CC[C@H]1C[C@@]2(C)OC[C@H](C(C)C)N2C1=O	> 100 µM (inactive)	–	–	> 100 µM (inactive)	> 100 µM (inactive)	–	> 100 µM (inactive)	> 100 µM (inactive)	–	> 100 µM (inactive)	> 100 µM (inactive)	> 100 µM (inactive)	> 100 µM (inactive)	> 100 µM (inactive)	–	> 100 µM (inactive)	–	–	–	–
Cn1nc(-c2ccccc2)c(N=[N+]=[N-])cc1=O	> 100 µM (inactive)	> 100 µM (inactive)	> 100 µM (inactive)	> 100 µM (inactive)	> 100 µM (inactive)	> 100 µM (inactive)	> 100 µM (inactive)	> 100 µM (inactive)	> 100 µM (inactive)	> 100 µM (inactive)	> 100 µM (inactive)	> 100 µM (inactive)	> 100 µM (inactive)	> 100 µM (inactive)	–	> 100 µM (inactive)	> 100 µM (inactive)	–	–	–
Cc1ccc(C)c(NC(=O)CC/C(=N\NC(=O)C(N)=O)C(C)C(=O)c2ccc(O)cc2)c1 (configuration not stated)	> 100 µM (inactive)	> 100 µM (inactive)	> 100 µM (inactive)	> 100 µM (inactive)	–	> 100 µM (inactive)	> 100 µM (inactive)	> 100 µM (inactive)	> 100 µM (inactive)	> 100 µM (inactive)	–	> 100 µM (inactive)	> 100 µM (inactive)	> 100 µM (inactive)	> 100 µM (inactive)	–	> 100 µM (inactive)	–	–	–
O=C1NC2(C=Cc3c(ccc4ccccc34)O2)Oc2ccccc21 (configuration not stated)	13.1 µM (inactive)	1.76 µM (inactive)	–	19.2 µM (inactive)	6.08 µM (inactive)	7.8 µM (inactive)	25.8 µM (inactive)	18.7 µM (inactive)	31 µM (inactive)	15.6 µM (inactive)	21.5 µM (inactive)	28.1 µM (inactive)	5.18 µM (inactive)	15 µM (inactive)	–	–	26.5 µM (inactive)	–	–	–
C=CC(=O)NCCSCCCOC1(C(=O)O)CC(O)C(NC(C)=O)C(C(O)C(O)CO)O1 (configuration not stated)	–	> 100 µM (inactive)	> 100 µM (inactive)	> 100 µM (inactive)	> 100 µM (inactive)	> 100 µM (inactive)	–	> 100 µM (inactive)	> 100 µM (inactive)	> 100 µM (inactive)	> 100 µM (inactive)	> 100 µM (inactive)	> 100 µM (inactive)	> 100 µM (inactive)	> 100 µM (inactive)	–	> 100 µM (inactive)	–	–	–
C=C(C)C1Cc2c(cc3c(c2O)c(=O)c2ccccc2n3C)O1 (configuration not stated)	2.38 µM (inactive)	1.84 µM (inactive)	12.1 µM (inactive)	2.34 µM (inactive)	2.06 µM (inactive)	0.372 µM (active)	–	6.62 µM (inactive)	3 µM (inactive)	10.7 µM (inactive)	13.9 µM (inactive)	1.87 µM (inactive)	1.95 µM (inactive)	3.33 µM (inactive)	–	10.1 µM (inactive)	2.41 µM (inactive)	6.3 µM (inactive)	6.67 µM (inactive)	2.3 µM (inactive)
COC(=O)c1c(CC#N)cccc1CC#N	–	> 100 µM (inactive)	> 100 µM (inactive)	> 100 µM (inactive)	> 100 µM (inactive)	> 100 µM (inactive)	> 100 µM (inactive)	> 100 µM (inactive)	> 100 µM (inactive)	–	–	> 100 µM (inactive)	> 100 µM (inactive)	> 100 µM (inactive)	> 100 µM (inactive)	–	> 100 µM (inactive)	–	–	–
COC(=O)OCC1OC(N2C(=O)NC(=O)C(Br)C2N=[N+]=[N-])CC1OC(=O)OC (configuration not stated)	> 100 µM (inactive)	> 100 µM (inactive)	> 100 µM (inactive)	> 100 µM (inactive)	> 100 µM (inactive)	–	> 100 µM (inactive)	> 100 µM (inactive)	> 100 µM (inactive)	> 100 µM (inactive)	> 100 µM (inactive)	> 100 µM (inactive)	> 100 µM (inactive)	> 100 µM (inactive)	> 100 µM (inactive)	–	> 100 µM (inactive)	–	–	–
O=C1c2ccccc2C(=O)N1C/C=N/NS(=O)(=O)c1ccc(F)cc1	> 100 µM (inactive)	> 100 µM (inactive)	> 100 µM (inactive)	> 100 µM (inactive)	> 100 µM (inactive)	> 100 µM (inactive)	> 100 µM (inactive)	> 100 µM (inactive)	–	–	> 100 µM (inactive)	> 100 µM (inactive)	> 100 µM (inactive)	> 100 µM (inactive)	> 100 µM (inactive)	–	> 100 µM (inactive)	–	–	–
Cn1c(=O)c2c(ncn2CCCCn2ccnc2[N+](=O)[O-])n(C)c1=O	> 100 µM (inactive)	> 100 µM (inactive)	–	> 100 µM (inactive)	> 100 µM (inactive)	> 100 µM (inactive)	> 100 µM (inactive)	> 100 µM (inactive)	> 100 µM (inactive)	> 100 µM (inactive)	> 100 µM (inactive)	> 100 µM (inactive)	> 100 µM (inactive)	> 100 µM (inactive)	–	–	> 100 µM (inactive)	–	–	–
COc1ccc(C2C(C#N)=C(S)N(C3OC(CO)C(O)C(O)C3O)C(C)=C2C(C)=O)cc1 (configuration not stated)	42.2 µM (inactive)	> 100 µM (inactive)	> 100 µM (inactive)	86.1 µM (inactive)	62.1 µM (inactive)	40.8 µM (inactive)	–	> 100 µM (inactive)	> 100 µM (inactive)	> 100 µM (inactive)	> 100 µM (inactive)	> 100 µM (inactive)	> 100 µM (inactive)	> 100 µM (inactive)	–	> 100 µM (inactive)	> 100 µM (inactive)	> 100 µM (inactive)	30.5 µM (inactive)	> 100 µM (inactive)
O=C1Nc2c(Cl)cc(Cl)cc2/C1=N/Nc1ccccc1[N+](=O)[O-]	> 100 µM (inactive)	> 100 µM (inactive)	> 100 µM (inactive)	22.2 µM (inactive)	> 100 µM (inactive)	46.1 µM (inactive)	–	69.2 µM (inactive)	39.3 µM (inactive)	75.7 µM (inactive)	22.6 µM (inactive)	23.8 µM (inactive)	88.9 µM (inactive)	6.85 µM (inactive)	–	55.7 µM (inactive)	49 µM (inactive)	8.32 µM (inactive)	70.5 µM (inactive)	40.3 µM (inactive)
O=C1N=C(Nc2ccccc2Cl)N/C1=C\c1ccc(Cl)cc1Cl	71.9 µM (inactive)	> 100 µM (inactive)	53.5 µM (inactive)	> 100 µM (inactive)	> 100 µM (inactive)	66.8 µM (inactive)	–	98.9 µM (inactive)	72.6 µM (inactive)	99.8 µM (inactive)	> 100 µM (inactive)	79.4 µM (inactive)	45.6 µM (inactive)	33.9 µM (inactive)	–	33.1 µM (inactive)	25.1 µM (inactive)	> 100 µM (inactive)	> 100 µM (inactive)	45.6 µM (inactive)
COc1ccc(NC(=O)NNS(=O)(=O)c2ccc(C)cc2)cc1	74 µM (inactive)	> 100 µM (inactive)	> 100 µM (inactive)	70 µM (inactive)	> 100 µM (inactive)	> 100 µM (inactive)	–	> 100 µM (inactive)	> 100 µM (inactive)	> 100 µM (inactive)	> 100 µM (inactive)	> 100 µM (inactive)	91.6 µM (inactive)	> 100 µM (inactive)	–	> 100 µM (inactive)	> 100 µM (inactive)	> 100 µM (inactive)	> 100 µM (inactive)	> 100 µM (inactive)
COC(=O)c1cc2c(cc1CC(Cc1ccc3c(c1)CCCC3)C(=O)OC)CCCC2 (configuration not stated)	24.5 µM (inactive)	> 100 µM (inactive)	20.8 µM (inactive)	> 100 µM (inactive)	20 µM (inactive)	42.1 µM (inactive)	–	37.7 µM (inactive)	88.3 µM (inactive)	86.1 µM (inactive)	95.3 µM (inactive)	> 100 µM (inactive)	50.5 µM (inactive)	41.7 µM (inactive)	–	> 100 µM (inactive)	59.3 µM (inactive)	93.3 µM (inactive)	39.8 µM (inactive)	41.3 µM (inactive)
